Assay [1] concerns the target Vascular endothelial growth factor receptor 2 (Homo sapiens, UniProt P35968).
For assay [2], the target named is Mitogen-activated protein kinase 9 (Homo sapiens, UniProt P45984).
The target in assay [3] is T1, Atypical kinase COQ8B, mitochondrial (Homo sapiens, UniProt Q96D53).
T1 sequence (Q96D53 whole entry): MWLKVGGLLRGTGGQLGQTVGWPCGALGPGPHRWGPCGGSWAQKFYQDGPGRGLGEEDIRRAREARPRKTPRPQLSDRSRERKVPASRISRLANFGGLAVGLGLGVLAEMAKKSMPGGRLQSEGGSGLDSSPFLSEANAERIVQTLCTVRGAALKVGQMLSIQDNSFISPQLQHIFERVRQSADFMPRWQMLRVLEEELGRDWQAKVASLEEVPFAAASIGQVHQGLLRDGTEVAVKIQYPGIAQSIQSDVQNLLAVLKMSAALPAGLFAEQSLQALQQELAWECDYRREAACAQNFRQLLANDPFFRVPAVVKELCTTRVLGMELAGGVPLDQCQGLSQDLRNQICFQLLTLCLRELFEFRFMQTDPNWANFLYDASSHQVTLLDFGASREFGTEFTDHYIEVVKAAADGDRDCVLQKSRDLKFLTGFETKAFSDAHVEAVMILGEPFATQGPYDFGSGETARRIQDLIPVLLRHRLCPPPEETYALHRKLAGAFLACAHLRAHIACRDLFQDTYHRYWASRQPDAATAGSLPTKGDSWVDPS

Assay [4] deals with T2, Serine/threonine-protein kinase 17A (Homo sapiens, UniProt Q9UEE5).
T2 sequence (Q9UEE5 whole entry): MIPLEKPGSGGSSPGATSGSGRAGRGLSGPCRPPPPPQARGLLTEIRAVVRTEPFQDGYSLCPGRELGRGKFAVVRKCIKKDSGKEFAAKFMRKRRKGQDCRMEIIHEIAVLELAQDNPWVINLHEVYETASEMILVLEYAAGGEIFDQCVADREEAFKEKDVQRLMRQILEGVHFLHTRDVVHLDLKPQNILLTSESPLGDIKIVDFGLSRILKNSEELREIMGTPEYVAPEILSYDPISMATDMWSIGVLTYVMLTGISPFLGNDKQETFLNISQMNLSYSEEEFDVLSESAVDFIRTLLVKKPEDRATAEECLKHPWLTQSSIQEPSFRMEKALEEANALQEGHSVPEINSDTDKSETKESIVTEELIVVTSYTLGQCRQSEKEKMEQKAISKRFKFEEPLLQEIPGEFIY

Assay [5] concerns the target T3, Tyrosine-protein kinase Tec (Homo sapiens, UniProt P42680).
T3 sequence (P42680 whole entry): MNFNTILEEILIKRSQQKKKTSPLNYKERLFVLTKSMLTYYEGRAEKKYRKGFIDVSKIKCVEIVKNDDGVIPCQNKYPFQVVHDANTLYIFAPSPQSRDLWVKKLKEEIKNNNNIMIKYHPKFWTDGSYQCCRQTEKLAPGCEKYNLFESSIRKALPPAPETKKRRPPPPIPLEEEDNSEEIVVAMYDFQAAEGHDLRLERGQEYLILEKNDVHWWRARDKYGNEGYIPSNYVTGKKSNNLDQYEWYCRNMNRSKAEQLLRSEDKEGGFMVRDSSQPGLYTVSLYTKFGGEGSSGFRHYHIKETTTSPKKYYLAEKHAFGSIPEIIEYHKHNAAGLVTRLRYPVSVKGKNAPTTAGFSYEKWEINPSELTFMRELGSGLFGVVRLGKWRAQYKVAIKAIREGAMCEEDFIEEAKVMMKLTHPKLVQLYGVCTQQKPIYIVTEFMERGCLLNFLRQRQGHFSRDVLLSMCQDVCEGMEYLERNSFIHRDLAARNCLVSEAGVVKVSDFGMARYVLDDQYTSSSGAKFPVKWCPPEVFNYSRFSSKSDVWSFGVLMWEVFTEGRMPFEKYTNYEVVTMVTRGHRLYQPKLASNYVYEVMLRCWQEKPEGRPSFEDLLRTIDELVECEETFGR

Assay [6] concerns the target Serine/threonine-protein kinase 33 (Homo sapiens, UniProt Q9BYT3).
Assay [7] addresses T4, Non-receptor tyrosine-protein kinase TNK1 (Homo sapiens, UniProt Q13470).
T4 sequence (Q13470 whole entry): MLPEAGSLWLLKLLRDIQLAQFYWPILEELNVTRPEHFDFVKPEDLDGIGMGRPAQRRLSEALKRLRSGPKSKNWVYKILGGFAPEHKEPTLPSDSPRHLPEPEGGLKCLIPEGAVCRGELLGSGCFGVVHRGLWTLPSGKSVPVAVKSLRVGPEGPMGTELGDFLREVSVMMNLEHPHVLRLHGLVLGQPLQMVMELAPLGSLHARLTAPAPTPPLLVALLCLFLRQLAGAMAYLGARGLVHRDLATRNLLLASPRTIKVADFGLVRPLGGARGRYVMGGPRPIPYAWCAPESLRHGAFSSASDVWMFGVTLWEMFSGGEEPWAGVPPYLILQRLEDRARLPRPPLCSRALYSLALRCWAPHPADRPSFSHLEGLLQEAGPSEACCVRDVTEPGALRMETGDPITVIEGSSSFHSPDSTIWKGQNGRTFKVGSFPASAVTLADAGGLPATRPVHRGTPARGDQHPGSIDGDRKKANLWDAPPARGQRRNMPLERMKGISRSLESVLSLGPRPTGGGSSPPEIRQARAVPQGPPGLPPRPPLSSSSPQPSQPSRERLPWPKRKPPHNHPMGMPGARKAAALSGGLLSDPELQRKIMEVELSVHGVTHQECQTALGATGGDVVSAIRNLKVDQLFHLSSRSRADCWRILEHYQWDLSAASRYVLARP

Assay [8] has as its target MAP/microtubule affinity-regulating kinase 3 (Homo sapiens, UniProt P27448).

Sequence of Vascular endothelial growth factor receptor 2 (P35968 whole entry): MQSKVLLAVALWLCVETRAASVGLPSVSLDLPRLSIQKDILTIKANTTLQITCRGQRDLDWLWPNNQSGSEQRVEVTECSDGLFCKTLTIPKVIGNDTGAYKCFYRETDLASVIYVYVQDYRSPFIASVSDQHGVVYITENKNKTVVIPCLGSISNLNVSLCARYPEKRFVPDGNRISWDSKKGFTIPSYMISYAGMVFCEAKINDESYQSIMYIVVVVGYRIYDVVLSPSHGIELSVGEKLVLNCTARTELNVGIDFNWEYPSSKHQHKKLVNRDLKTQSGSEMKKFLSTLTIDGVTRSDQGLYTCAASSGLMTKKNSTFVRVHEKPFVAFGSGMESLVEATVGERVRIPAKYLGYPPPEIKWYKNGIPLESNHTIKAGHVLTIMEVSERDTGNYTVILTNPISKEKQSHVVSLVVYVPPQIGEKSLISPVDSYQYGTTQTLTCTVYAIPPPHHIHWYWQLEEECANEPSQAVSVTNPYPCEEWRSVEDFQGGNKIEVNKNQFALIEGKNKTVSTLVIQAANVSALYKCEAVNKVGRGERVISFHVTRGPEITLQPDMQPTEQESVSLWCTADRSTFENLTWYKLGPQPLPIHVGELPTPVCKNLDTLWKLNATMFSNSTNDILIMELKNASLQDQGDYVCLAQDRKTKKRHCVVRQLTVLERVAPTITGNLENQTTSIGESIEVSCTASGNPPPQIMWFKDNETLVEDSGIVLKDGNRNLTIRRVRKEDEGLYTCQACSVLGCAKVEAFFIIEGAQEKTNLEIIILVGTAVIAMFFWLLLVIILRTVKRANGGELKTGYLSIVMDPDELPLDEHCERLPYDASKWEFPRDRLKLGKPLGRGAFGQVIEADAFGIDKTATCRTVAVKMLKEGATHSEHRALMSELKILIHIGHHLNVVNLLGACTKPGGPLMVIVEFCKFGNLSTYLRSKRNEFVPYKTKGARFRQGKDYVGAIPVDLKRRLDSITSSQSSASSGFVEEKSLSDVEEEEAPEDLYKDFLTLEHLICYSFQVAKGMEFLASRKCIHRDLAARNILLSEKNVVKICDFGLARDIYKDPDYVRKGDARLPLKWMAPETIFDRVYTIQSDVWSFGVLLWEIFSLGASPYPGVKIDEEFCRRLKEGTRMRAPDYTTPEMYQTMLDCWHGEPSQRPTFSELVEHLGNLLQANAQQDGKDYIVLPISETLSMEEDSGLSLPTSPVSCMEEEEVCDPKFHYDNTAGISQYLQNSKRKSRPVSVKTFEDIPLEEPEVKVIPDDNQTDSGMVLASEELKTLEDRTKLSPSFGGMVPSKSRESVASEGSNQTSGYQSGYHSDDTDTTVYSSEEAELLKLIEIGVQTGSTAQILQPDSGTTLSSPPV
Sequence of Serine/threonine-protein kinase 33 (Q9BYT3 whole entry): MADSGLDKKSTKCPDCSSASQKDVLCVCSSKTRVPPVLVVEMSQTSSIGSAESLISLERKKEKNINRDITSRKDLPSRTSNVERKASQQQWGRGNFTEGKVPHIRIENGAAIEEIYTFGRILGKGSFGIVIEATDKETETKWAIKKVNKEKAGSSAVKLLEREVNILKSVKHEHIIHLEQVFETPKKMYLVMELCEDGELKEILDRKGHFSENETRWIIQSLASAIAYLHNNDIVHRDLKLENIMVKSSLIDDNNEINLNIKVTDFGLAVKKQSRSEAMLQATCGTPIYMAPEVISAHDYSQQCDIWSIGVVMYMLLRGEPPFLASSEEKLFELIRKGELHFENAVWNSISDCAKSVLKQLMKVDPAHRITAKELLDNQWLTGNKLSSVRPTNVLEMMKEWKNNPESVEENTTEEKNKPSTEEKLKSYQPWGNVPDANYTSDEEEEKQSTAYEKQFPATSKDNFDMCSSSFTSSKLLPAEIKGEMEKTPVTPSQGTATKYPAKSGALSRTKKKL
Sequence of Mitogen-activated protein kinase 9 (P45984 whole entry): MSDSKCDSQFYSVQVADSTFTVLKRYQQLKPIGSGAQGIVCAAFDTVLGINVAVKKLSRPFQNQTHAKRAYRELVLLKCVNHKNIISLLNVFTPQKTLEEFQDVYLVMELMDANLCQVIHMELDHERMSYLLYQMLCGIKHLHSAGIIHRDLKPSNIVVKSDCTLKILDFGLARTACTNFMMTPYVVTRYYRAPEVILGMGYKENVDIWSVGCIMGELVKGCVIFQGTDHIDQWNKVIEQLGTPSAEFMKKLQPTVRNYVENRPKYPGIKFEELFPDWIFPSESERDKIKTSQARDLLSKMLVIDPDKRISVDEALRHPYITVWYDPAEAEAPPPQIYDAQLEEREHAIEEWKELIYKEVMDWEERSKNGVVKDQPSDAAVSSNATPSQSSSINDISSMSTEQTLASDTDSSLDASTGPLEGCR
Sequence of MAP/microtubule affinity-regulating kinase 3 (P27448 whole entry): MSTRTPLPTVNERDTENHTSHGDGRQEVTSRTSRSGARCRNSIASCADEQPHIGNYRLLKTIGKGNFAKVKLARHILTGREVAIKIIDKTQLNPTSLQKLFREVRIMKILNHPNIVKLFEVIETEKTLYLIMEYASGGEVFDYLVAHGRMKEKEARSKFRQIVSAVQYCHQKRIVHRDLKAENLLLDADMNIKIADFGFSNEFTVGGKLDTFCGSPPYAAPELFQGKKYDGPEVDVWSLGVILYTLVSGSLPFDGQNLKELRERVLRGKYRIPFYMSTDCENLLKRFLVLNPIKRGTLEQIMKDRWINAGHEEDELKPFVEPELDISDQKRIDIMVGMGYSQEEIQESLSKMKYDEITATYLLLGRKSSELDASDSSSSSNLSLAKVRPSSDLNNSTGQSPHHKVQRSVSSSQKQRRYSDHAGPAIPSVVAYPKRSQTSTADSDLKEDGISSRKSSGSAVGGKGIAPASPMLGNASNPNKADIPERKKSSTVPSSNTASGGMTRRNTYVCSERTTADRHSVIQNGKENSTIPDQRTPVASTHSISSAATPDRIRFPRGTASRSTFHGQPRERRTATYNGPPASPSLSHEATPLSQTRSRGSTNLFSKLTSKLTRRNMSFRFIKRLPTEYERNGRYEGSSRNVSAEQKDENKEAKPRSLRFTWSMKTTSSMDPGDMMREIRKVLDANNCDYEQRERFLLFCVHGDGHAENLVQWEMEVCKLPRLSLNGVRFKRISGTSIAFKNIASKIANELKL

Usually Kd stands for the equilibrium constant for the complex coming apart. Consider `COCC(=O)NC/C=C/c1ccc2ncnc(Nc3ccc(Oc4ccc(C)nc4)c(C)c3)c2c1` [CP-724714], for which the Kd in assay [1], in assay [2], in assay [3], in assay [4], in assay [5] and in assay [6] was > 10 µM throughout. The Kd in assay [7] and in assay [8] was > 10 µM throughout.

In the case of `Nc1nc(Nc2ccc(S(N)(=O)=O)cc2)nn1C(=O)c1c(F)cccc1F` [JNJ-7706621], the Kd in assay [3] and in assay [6] was > 10 µM in each case.

For `CCOc1cc2ncc(C#N)c(Nc3ccc(F)c(Cl)c3)c2cc1NC(=O)/C=C/CN(C)C` [PELITINIB], the Kd in assay [1] was > 10 µM; in assay [2], > 10 µM; in assay [3] it was 6.1 µM; in assay [5], > 10 µM; in assay [7] it was > 10 µM; in assay [8], > 10 µM.

On to `Oc1ccc(-c2nc(-c3ccncc3)c(-c3ccc(F)cc3)[nH]2)cc1` [SB-202190], for which the Kd in assay [1] is > 10 µM; in assay [3], 4.9 µM; in assay [4] it was > 10 µM; in assay [5], > 10 µM; in assay [6], > 10 µM; in assay [7], > 10 µM. In assay [8], the Kd is > 10 µM.

For `NC(=O)c1ccc(-c2nc(-c3ccc4c(c3)OCO4)c(-c3ccccn3)[nH]2)cc1` [SB-431542], the dissociation constant (Kd) in assay [1], in assay [2], in assay [3], in assay [4], in assay [5] and in assay [6] was > 10 µM in each case. Moreover, the Kd in assay [7] and in assay [8] was > 10 µM in each case.

The record behind these values is ChEMBL document CHEMBL1150977, “A quantitative analysis of kinase inhibitor selectivity” (Nat Biotechnol, 2008).
